Measurements: patent US8129361B2, “Amine compound and pharmaceutical use thereof” (Mitsubishi Tanabe Pharma Corporation, priority 2007, dated 2012)

Experiments:
Format in all cases: in vivo
[1] = test system: heart rate in rat under anesthesia; assay: Action on heart rate in rat under anesthesia (intravenous administration); conditions: anesthetized male Sprague-Dawley (IGS) rats, intravenous over 30 sec, up to the dose of 0.03 mg/kg body weight, 1-15 minutes after administration
Protocol: Action on Heart Rate in Rat Under Anesthesia
Male Sprague-Dawley (IGS) rats were anesthetized by intraperitoneal administration of Nembutal (manufactured by Dainippon Sumitomo Pharma Co., Ltd.), and fixed at the dorsal position. Electrodes were mounted on four limbs, and the electrocardiogram was measured according to Standard Limb Lead II using an electrocardiogram amplifier (AC-601G, manufactured by NIHON KOHDEN CORPORATION). With the electrocardiographic wave as a trigger, the heart rate was measured with an instantaneous heart rate unit (AT-601G, manufactured by NIHON KOHDEN CORPORATION). The test compound was dissolved in 20% cyclodextrin (manufactured by Nihon Shokuhin Kako Co., Ltd.) and intravenously administered at a dose of 0.001-10 mg/kg body weight over 30 sec. The heart rate was measured before administration, and 1, 2, 3, 4, 5, 10 and 15 minutes after the administration.

[2] = test system: peripheral blood lymphocyte number; assay: Peripheral blood lymphocyte number decreasing action in mouse; conditions: ip, male BALB/cAnNCrj mice, intraperitoneal, 24 hr after administration, read-out: ED50 (dose necessary for reducing the lymphocyte count of the vehicle group (100%) by 50%)
[3] = test system: peripheral blood lymphocyte number; assay: Peripheral blood lymphocyte number decreasing action in rat; conditions: male F344 rats, oral, 24 hr after administration, read-out: ED50 (dose necessary for reducing the lymphocyte count of the vehicle group (100%) by 50%)

SMILES | Effect on heart rate as compared to the value before administration [1] | ED50 [2] [mg/kg] | ED50 [3] [mg/kg]
NC(/C=C/c1ccc(OCCCc2ccccc2)c(C(F)(F)F)c1)(CO)COP(=O)(O)O (stereo not drawn) [compound 192-2, (E)-2-amino-4-[4-(3-phenylpropoxy)-3-trifluoromethylphenyl]-2-(phosphoryloxymethyl)-3-butenol] | did not reduce the heart rate of the rat by 20% or more | – | –
NC(CO)(CCc1ccc(OCCCc2ccc(OC(F)(F)F)cc2)c(C(F)(F)F)c1)COP(=O)(O)O (stereo not drawn) [Compound 153-2, 2-amino-2-(phosphoryloxymethyl)-4-{4-[3-(4-trifluoromethoxyphenyl)propoxy]-3-trifluoromethylphenyl}butanol] | did not reduce the heart rate of the rat by 20% or more | – | –
Cl.NC(CO)(CO)CCc1ccc(OCCCc2cccc(OC(F)(F)F)c2)c(C(F)(F)F)c1 [Compound 58-5, 2-amino-2-(2-{4-[3-(3-trifluoromethoxyphenyl)propoxy]-3-trifluoromethylphenyl}ethyl)propane-1,3-diol hydrochloride] | – | 0.06 | 0.07
CCC(N)(CCc1ccc(OCCCc2ccc(OC(F)(F)F)cc2)c(C(F)(F)F)c1)COP(=O)(O)O (stereo not drawn) [Compound 221-2, phosphoric acid mono(2-amino-2-ethyl-4-{4-[3-(4-trifluoromethoxyphenyl)propoxy]-3-trifluoromethylphenyl}butyl)ester] | did not reduce the heart rate of the rat by 20% or more | – | –
CC[C@](N)(CO)CCc1ccc(OCCCc2ccc(C(F)(F)F)cc2)c(C(F)(F)F)c1.Cl [Compound 32-1, (R)-2-amino-2-ethyl-4-{3-trifluoromethyl-4-[3-(4-trifluoromethylphenyl)propoxy]phenyl}butanol hydrochloride] | – | – | 0.02
CC[C@](N)(CO)CCc1ccc(OCCCc2ccc(Cl)c(Cl)c2)c(C(F)(F)F)c1.Cl [Compound 206-3, (R)-2-amino-4-{4-[3-(3,4-dichlorophenyl)propoxy]-3-trifluoromethylphenyl}-2-ethylbutanol hydrochloride] | – | 0.02 | 0.05
CC[C@](N)(CO)CCc1ccc(OCCCc2ccc(OC(F)(F)F)cc2)c(C(F)(F)F)c1.Cl [Compound 218-2, (R)-2-amino-2-ethyl-4-{4-[3-(4-trifluoromethoxyphenyl)propoxy]-3-trifluoromethylphenyl}butanol hydrochloride] | – | – | 0.03
CC(N)(CCc1ccc(OCCCc2ccc(Cl)c(Cl)c2)c(C(F)(F)F)c1)COP(=O)(O)O (stereo not drawn) [Compound 209-2, phosphoric acid mono(2-amino-4-{4-[3-(3,4-dichlorophenyl)propoxy]-3-trifluoromethylphenyl}-2-methylbutyl)ester] | did not reduce the heart rate of the rat by 20% or more | – | –
NC(CO)(CCc1ccc(OCCCc2cccc(OC(F)(F)F)c2)c(C(F)(F)F)c1)COP(=O)(O)O (stereo not drawn) [Compound 158-2, 2-amino-2-(phosphoryloxymethyl)-4-{4-[3-(3-trifluoromethoxyphenyl)propoxy]-3-trifluoromethylphenyl}butanol] | did not reduce the heart rate of the rat by 20% or more | – | –
Cl.NC(/C=C/c1ccc(OCCCc2ccccc2)c(C(F)(F)F)c1)(CO)CO [Compound 100-2, (E)-2-amino-2-{2-[4-(3-phenylpropoxy)-3-trifluoromethylphenyl]vinyl}propane-1,3-diol hydrochloride] | – | 0.07 | 0.07
NC(/C=C/c1ccc(OCCCc2ccccc2F)c(C(F)(F)F)c1)(CO)COP(=O)(O)O (stereo not drawn) [compound 193-2, (E)-2-amino-4-{4-[3-(2-fluorophenyl)propoxy]-3-trifluoromethylphenyl}-2-(phosphoryloxymethyl)-3-butenol] | did not reduce the heart rate of the rat by 20% or more | – | –
Cl.NC(CO)(CO)CCc1ccc(OCCCc2ccc(C(F)(F)F)c(F)c2)c(C(F)(F)F)c1 [Compound 68-4, 2-amino-2-(2-{4-[3-(3-fluoro-4-trifluoromethylphenyl)propoxy]-3-trifluoromethylphenyl}ethyl)propane-1,3-diol hydrochloride] | – | 0.04 | 0.09
CC[C@](N)(CO)CCc1ccc(OCCCc2cccc(OC(F)(F)F)c2)c(C(F)(F)F)c1.Cl [Compound 220-2, (R)-2-amino-2-ethyl-4-{4-[3-(3-trifluoromethoxyphenyl)propoxy]-3-trifluoromethylphenyl}butanol hydrochloride] | – | – | 0.03
Cl.NC(/C=C/c1ccc(OCCCc2ccccc2F)c(C(F)(F)F)c1)(CO)CO [Compound 101-2, (E)-2-amino-2-(2-{4-[3-(2-fluorophenyl)propoxy]-3-trifluoromethylphenyl}vinyl)propane-1,3-diol hydrochloride] | – | 0.1 | –
Cl.NC(CO)(CO)CCc1ccc(OC/C=C/c2cccc(Cl)c2)c(C(F)(F)F)c1 [Compound 89-2, 2-amino-2-(2-{4-[3-(3-chlorophenyl)allyloxy]-3-trifluoromethylphenyl}ethyl)propane-1,3-diol hydrochloride] | – | 0.04 | 0.06
NC(CO)(CCc1ccc(OCCCc2ccc(C(F)(F)F)c(F)c2)c(C(F)(F)F)c1)COP(=O)(O)O (stereo not drawn) [Compound 168-2, 2-amino-4-{4-[3-(3-fluoro-4-trifluoromethylphenyl)propoxy]-3-trifluoromethylphenyl}-2-(phosphoryloxymethyl)butanol] | did not reduce the heart rate of the rat by 20% or more | – | –
CCC(N)(CCc1ccc(OCCCc2cccc(OC(F)(F)F)c2)c(C(F)(F)F)c1)COP(=O)(O)O (stereo not drawn) [Compound 223-2, phosphoric acid mono(2-amino-2-ethyl-4-{4-[3-(3-trifluoromethoxyphenyl)propoxy]-3-trifluoromethylphenyl}butyl)ester] | did not reduce the heart rate of the rat by 20% or more | – | –
C[C@@](N)(CCc1ccc(OCCCc2ccc(C(F)(F)F)cc2)c(C(F)(F)F)c1)COP(=O)(O)O [Compound 132-2, (R)-phosphoric acid mono(2-amino-2-methyl-4-{3-trifluoromethyl-4-[3-(4-trifluoromethylphenyl)propoxy]phenyl}butyl)ester] | did not reduce the heart rate of the rat by 20% or more | – | –
C[C@](N)(CO)CCc1ccc(OCCCc2ccc(C(F)(F)F)cc2)c(C(F)(F)F)c1.Cl [Compound 29-1, (R)-2-amino-2-methyl-4-{3-trifluoromethyl-4-[3-(4-trifluoromethylphenyl)propoxy]phenyl}butanol hydrochloride] | – | – | 0.03
